Laboratory results published in ChEMBL document CHEMBL4229331, “Synthesis and biological evaluation of 173-dicarboxylethyl-pyropheophorbide-a amide derivatives for photodynamic therapy” (Bioorg Med Chem Lett, 2018).
The source made the active and inactive calls. No cut-off for these calls is given here.

Assays:
[1] = […] assessed as singlet oxygen release by measuring DPBF oxidation rate in presence of 650 nm light by UV-vis spectrophotometer; assay type: functional
[2] = system: ECa-109 cell line; experiment: Photocytotoxicity against human ECA109 cells assessed as decrease in cell viability at 1 uM preincubated for 24 hrs followed by laser irradiation at 1 to 32 J/Cm'2 by MTT assay; assay type: functional, cell-based
[3] = Drug uptake in nuclear membrane of human ECA109 cells at 5 uM incubated for 4 hrs in dark condition by Hoechst 33342 staining-based confocal fluorescence microscopy; assay type: ADME, cell membranes; details: eca-109, 4 h
[4] = system: ECa-109 cell line; experiment: Induction of apoptosis in human ECA109 cells assessed as late apoptotic/necrotic cells at 1 uM preincubated for 24 hrs followed by laser irradiation at 16 J/cm'2 and measured after 24 hrs by annexin V/propidium iodide staining-based flow cytometric method (reference value: 0.08%); assay type: functional
[5] = system: ECa-109 cell line; experiment: Induction of apoptosis in human ECA109 cells assessed as early apoptotic cells at 1 uM preincubated for 24 hrs followed by laser irradiation at 16 J/cm'2 and measured after 24 hrs by annexin V/propidium iodide staining-based flow cytometric method (reference value: 2.45%); assay type: functional
[6] = system: ECa-109 cell line; experiment: Decrease in tumor volume in human ECA109 cells xenografted in BALB/c nude mouse at 3 mg/kg, iv measured at 21 days post treatment in absence of laser irradiation; assay type: ADME, organism-based; details: in vivo, 504 h
[7] = Octanol/water partition coefficient, log P of the compound by shake-flask method; assay type: physicochemical
[8] = Dark toxicity in human ECA109 cells assessed as decrease in cell viability up to 1 uM after 24 hrs by MTT assay; assay type: cell-based; details: eca-109, 24 h
[9] = Drug uptake in cytoplasm of human ECA109 cells at 5 uM incubated for 4 hrs in dark condition by Hoechst 33342 staining-based confocal fluorescence microscopy; assay type: ADME, subcellular; details: eca-109, 4 h
[10] = system: ECa-109 cell line; experiment: Induction of apoptosis in human ECA109 cells assessed as increase in late apoptotic/necrotic cells preincubated for 24 hrs followed by laser irradiation at 16 J/cm'2 and measured after 24 hrs by annexin V/propidium iodide staining-based flow cytometric method; assay type: functional, cell-based
[11] = system: ECa-109 cell line; experiment: Induction of apoptosis in human ECA109 cells assessed as early apoptotic cells at 5 uM preincubated for 24 hrs followed by laser irradiation at 16 J/cm'2 and measured after 24 hrs by annexin V/propidium iodide staining-based flow cytometric method (reference value: 2.45%); assay type: functional
[12] = Dark toxicity in human ECA109 cells assessed as cell viability at 5 uM after 24 hrs by MTT assay (reference value: 80%); assay type: cell-based, ECa-109; details: read-out: Activity
[13] = system: ECa-109 cell line; experiment: Induction of apoptosis in human ECA109 cells assessed as late apoptotic/necrotic cells at 5 uM preincubated for 24 hrs followed by laser irradiation at 16 J/cm'2 and measured after 24 hrs by annexin V/propidium iodide staining-based flow cytometric method (reference value: 0.08%); assay type: functional
[14] = system: ECa-109 cell line; experiment: Antitumor activity against human ECA109 cells xenografted in BALB/c nude mouse assessed as decrease in tumor volume at 3 mg/kg, iv measured at 3 to 21 days post treatment in presence of 100 J/cm2 laser irradiation; assay type: functional, organism-based

Row | SMILES | K [1] | Activity [2] | Drug uptake [3] | Activity [4] | Activity [5] | Activity [6] | logP [7] | Activity [8] | Drug uptake [9] | Activity [10] | Activity [11] | viability at 24 h, 5 µM [12] | Activity [13] | Activity [14]
1 | C=Cc1c(C)c2cc3nc(c4c5[nH]c(cc6nc(cc1[nH]2)C(C)=C6CC)c(C)c5C(=O)C4)[C@@H](CCC(=O)O)[C@@H]3C | 0.0578 min⁻¹ |  |  |  |  |  |  |  |  |  |  |  |  | 
2 | CCC1=C(C)c2cc3[nH]c(cc4nc(c5c6[nH]c(cc1n2)c(C)c6C(=O)C5)[C@@H](CCC(=O)N(CCC(=O)O)CCC(=O)O)[C@@H]4C)c(C)c3C(C)OC (stereo partly specified) | 0.0596 min⁻¹ | Active | Active | 60.46% | 7.38% | Non-Toxic | 2.3 | Non-Toxic | Active | Dose-dependent effect | 5.41% | 50% | 81.22% | Active
3 | C=Cc1c(C)c2cc3nc(c4c5[nH]c(cc6nc(cc1[nH]2)C(C)=C6CC)c(C)c5C(=O)C4)[C@@H](CCC(=O)N(CCC(=O)OC)CCC(=O)OC)[C@@H]3C |  |  |  |  |  |  | 3.3 |  |  |  |  |  |  | 
4 | CCCCCOC(C)c1c(C)c2cc3nc(c4c5[nH]c(cc6nc(cc1[nH]2)C(C)=C6CC)c(C)c5C(=O)C4)[C@@H](CCC(=O)N(CCC(=O)O)CCC(=O)O)[C@@H]3C (stereo partly specified) | 0.0241 min⁻¹ | Active |  |  |  |  | 3.1 | Non-Toxic |  |  |  | 50% |  | 
5 | CCCOC(C)c1c(C)c2cc3nc(c4c5[nH]c(cc6nc(cc1[nH]2)C(C)=C6CC)c(C)c5C(=O)C4)[C@@H](CCC(=O)N(CCC(=O)O)CCC(=O)O)[C@@H]3C (stereo partly specified) | 0.0266 min⁻¹ | Active |  |  |  |  | 2.7 | Non-Toxic |  |  |  | 50% |  | 
